Test: in vitro
Conditions: human, hek293t cells
Description: Mammalian cytotoxicity measurement was performed using Cell Titer-Glo 2.0 Cell Viability Assay (Promega, G9243) according to the manufacturer protocol. In brief, mammalian cells were seeded into 384-well white plates (Greiner, 781080) and incubated at 37°C for one day. Compounds from the Cys-Library were dispensed into the assay plate using epMotion 96. The plates were then incubated at 37°C for two days. An equal volume of Cell Titer-Glo 2.0 reagent was added into each well of the assay plate using epMotion 96 and incubated at 22°C for 10 min, followed by luminescence measurement using a Cytation 5 plate reader (BioTek).

| Compound | viability at 48 h, 25 µM |
| --- | --- |
| Cc1cccc(NC(=O)C(C#N)=Cc2cnc3ccc(C#N)cn23)c1 [9-O18, 2-cyano-3-{6-cyanoimidazo[1,2-a]pyridin-3-yl}-N-(3-methylphenyl)prop-2-enamide] | 132% |
| COc1cc(C=C(C#N)C(=O)NC2CC2)cc(OC)c1O [9-O19, 2-cyano-N-cyclopropyl-3-(4-hydroxy-3,5-dimethoxyphenyl)prop-2-enamide] | 124% |
| N#CC(=Cc1ccccc1[N+](=O)[O-])C(=O)Nc1ccc2c(c1)OCCO2 [9-O20, 2-cyano-N-(2,3-dihydro-1,4-benzodioxin-6-yl)-3-(2-nitrophenyl)prop-2-enamide] | 108% |
| Cc1ccc(-n2c(C)cc(C=C(C#N)C(=O)N3CCCCC3)c2C)cc1 [9-O21, 3-[2,5-dimethyl-1-(4-methylphenyl)-1H-pyrrol-3-yl]-2-(piperidine-1-carbonyl)prop-2-enenitrile] | 87.8% |
| Cc1ccc(C)c(C=C(C#N)C(=O)NC(C)C)c1 [9-O22, 2-cyano-3-(2,5-dimethylphenyl)-N-(propan-2-yl)prop-2-enamide] | 125% |
| N#CC(=Cc1cccc(F)c1)C(=O)Nc1cc(Cl)ccc1Cl [9-P03, 2-cyano-N-(2,5-dichlorophenyl)-3-(3-fluorophenyl)prop-2-enamide] | 109% |
| Cc1cc(C=C(C#N)C(=O)N2CC[C@H](O)C2)c(C)n1CC1CCCO1 (stereo partly drawn) [9-P04, 3-{2,5-dimethyl-1-[(oxolan-2-yl)methyl]-1H-pyrrol-3-yl}-2-[(3S)-3-hydroxypyrrolidine-1-carbonyl]prop-2-enenitrile] | 131% |
| CCOc1ccccc1NC(=O)C(C#N)=Cc1ccc2c(c1)OCO2 [9-P05, 3-(1,3-dioxaindan-5-yl)-2-cyano-N-(2-ethoxyphenyl)prop-2-enamide] | 136% |
| N#CC(=Cc1c(F)cccc1Cl)C(=O)Nc1ccc(C(=O)O)cc1 [9-P06, 4-[3-(2-chloro-6-fluorophenyl)-2-cyanoprop-2-enamido]benzoic acid] | 142% |
| C=CCNC(=O)C(C#N)=Cc1sccc1C [9-P07, 2-cyano-3-(3-methylthiophen-2-yl)-N-(prop-2-en-1-yl)prop-2-enamide] | 117% |
| COc1cc(C=C(C#N)C(=O)Nc2ccccn2)ccc1O [9-P08, 2-cyano-3-(4-hydroxy-3-methoxyphenyl)-N-(pyridin-2-yl)prop-2-enamide] | 124% |
| CCN1C(=O)C(=Cc2ccc(-c3ccc(F)cc3)o2)C(C)=C(C#N)C1=O [9-P09, 1-ethyl-5-{[5-(4-fluorophenyl)furan-2-yl]methylidene}-4-methyl-2,6-dioxo-1,2,5,6-tetrahydropyridine-3-carbonitrile] | 127% |
| Cc1ccc(C=C(C#N)C(=O)Nc2nccs2)o1 [9-P10, 2-cyano-3-(5-methylfuran-2-yl)-N-(1,3-thiazol-2-yl)prop-2-enamide] | 126% |
| Cc1ccccc1NC(=O)C(C#N)=Cc1cc2c(cc1[N+](=O)[O-])OCO2 [9-P11, 2-cyano-N-(2-methylphenyl)-3-(6-nitro-1,3-dioxaindan-5-yl)prop-2-enamide] | 120% |
| COC(=O)c1ccc(C=C(C#N)C(=O)NC(C)C)n1C [9-P12, methyl 5-{2-cyano-2-[(propan-2-yl)carbamoyl]eth-1-en-1-yl}-1-methyl-1H-pyrrole-2-carboxylate] | 115% |
| CCCCNC(=O)C(C#N)=Cc1ccc(F)cc1 [9-P13, N-butyl-2-cyano-3-(4-fluorophenyl)prop-2-enamide] | 124% |
| Cc1ccc(C=C(C#N)C(=O)Nc2ccc(C(=O)N(C)C)cc2)o1 [9-P14, 4-[2-cyano-3-(5-methylfuran-2-yl)prop-2-enamido]-N,N-dimethylbenzamide] | 119% |
| N#CC(=Cc1cn2cc(Cl)ccc2n1)C(=O)NC1CCCC1 [9-P15, 3-{6-chloroimidazo[1,2-a]pyridin-2-yl}-2-cyano-N-cyclopentylprop-2-enamide] | 120% |
| CNC(=O)C(C#N)=Cc1cc(C)n(-c2cccc3ccccc23)c1C [9-P16, 2-cyano-3-[2,5-dimethyl-1-(naphthalen-1-yl)-1H-pyrrol-3-yl]-N-methylprop-2-enamide] | 109% |
| N#CC(=Cc1cc(Cl)ccc1O)C(=O)Nc1cccc2ccccc12 [9-P17, 3-(5-chloro-2-hydroxyphenyl)-2-cyano-N-(naphthalen-1-yl)prop-2-enamide] | 130% |
| N#CC(=Cc1cnc2ccccn12)C(=O)NCc1ccccc1 [9-P18, N-benzyl-2-cyano-3-{imidazo[1,2-a]pyridin-3-yl}prop-2-enamide] | 127% |
| COc1ccccc1NC(=O)C(C#N)=Cc1sccc1C [9-P19, 2-cyano-N-(2-methoxyphenyl)-3-(3-methylthiophen-2-yl)prop-2-enamide] | 133% |
| CC(C)Oc1ccccc1C=C(C#N)C(=O)Nc1cccc(Cl)c1 [9-P20, N-(3-chlorophenyl)-2-cyano-3-[2-(propan-2-yloxy)phenyl]prop-2-enamide] | 107% |
| N#CC(=Cc1ccc(C#N)cc1)C(=O)N1CCCC1 [9-P21, 4-[2-cyano-2-(pyrrolidine-1-carbonyl)eth-1-en-1-yl]benzonitrile] | 117% |
| C/C(O)=C(\C#N)C(=O)Nc1ccc(-c2ccccc2Cl)cc1 [9-P22, (2Z)-N-{2'-chloro-[1,1'-biphenyl]-4-yl}-2-cyano-3-hydroxybut-2-enamide] | 107% |
| O=C1C=CC(=O)N1c1ccccc1Sc1ccc(Cl)cc1 [10-A03, 1-{2-[(4-chlorophenyl)sulfanyl]phenyl}-2,5-dihydro-1H-pyrrole-2,5-dione] | 7.21% |

| Compound | viability at 48 h, 25 µM |
| --- | --- |
| CC1Cc2cc(C(=O)CCl)ccc2N1S(C)(=O)=O (stereo not shown) [10-A04, 2-chloro-1-(1-methanesulfonyl-2-methyl-2,3-dihydro-1H-indol-5-yl)ethan-1-one] | 0.28% |
| COc1ccc(CCN2C(=O)C=CC2=O)cc1 [10-A05, 1-[2-(4-methoxyphenyl)ethyl]-2,5-dihydro-1H-pyrrole-2,5-dione] | 5.85% |
| Cc1cc(C(=O)C(C)Cl)c(C)n1-c1ccccc1 (stereo not shown) [10-A06, 2-chloro-1-(2,5-dimethyl-1-phenyl-1H-pyrrol-3-yl)propan-1-one] | 99.9% |
| COC(=O)c1sccc1N1C(=O)C=CC1=O [10-A07, methyl 3-(2,5-dioxo-2,5-dihydro-1H-pyrrol-1-yl)thiophene-2-carboxylate] | 16.6% |
| CC(Cl)C(=O)c1ccc(NS(C)(=O)=O)cc1 (stereo not shown) [10-A08, N-[4-(2-chloropropanoyl)phenyl]methanesulfonamide] | 93.7% |
| Cc1ccc(C(=O)CCl)o1 [10-A09, 2-chloro-1-(5-methylfuran-2-yl)ethan-1-one] | 48.3% |
| CCOC(=O)c1[nH]c(C)c(C(=O)CCl)c1C [10-A10, ethyl 4-(2-chloroacetyl)-3,5-dimethyl-1H-pyrrole-2-carboxylate] | 0.365% |
| CC(=O)Nc1c(C)cc(C)c(C(=O)CCl)c1C [10-A12, N-[3-(2-chloroacetyl)-2,4,6-trimethylphenyl]acetamide] | 98.1% |
| Cc1cc(C(=O)CCl)co1 [10-A13, 2-chloro-1-(5-methylfuran-3-yl)ethan-1-one] | 41.5% |
| CCOc1ccc(N2C(=O)C=CC2=O)cc1 [10-A14, 1-(4-ethoxyphenyl)-2,5-dihydro-1H-pyrrole-2,5-dione] | 4.27% |
| O=C(CCl)Cc1ccc(Cl)cc1Cl [10-A15, 1-chloro-3-(2,4-dichlorophenyl)propan-2-one] | 0.248% |
| O=C(CCl)c1c[nH]c(C(=O)N2CCCC2)c1 [10-A16, 2-chloro-1-[5-(pyrrolidine-1-carbonyl)-1H-pyrrol-3-yl]ethan-1-one] | 0.377% |
| CC(Cl)C(=O)c1ccc(F)c(F)c1 (stereo not shown) [10-A17, 2-chloro-1-(3,4-difluorophenyl)propan-1-one] | 66.4% |
| O=C1C=CC(=O)N1c1ccc(SC(F)F)cc1 [10-A18, 1-{4-[(difluoromethyl)sulfanyl]phenyl}-2,5-dihydro-1H-pyrrole-2,5-dione] | 3.22% |
| O=C(CCl)C1CC12CCCCC2 (stereo not shown) [10-A19, 2-chloro-1-{spiro[2.5]octan-1-yl}ethan-1-one] | 86.3% |
| Cn1ncc2ccc(CNC(=O)N3CCSSCC3)cc21 [10-A20, N-[(1-methyl-1H-indazol-6-yl)methyl]-1,2,5-dithiazepane-5-carboxamide] | 93.8% |
| NC(=O)Cc1ccc(C(=O)CCl)s1 [10-A21, 2-[5-(2-chloroacetyl)thiophen-2-yl]acetamide] | 46.6% |
| Cc1cccc(-n2c(C)cc(C(=O)CCl)c2C)c1 [10-A22, 2-chloro-1-[2,5-dimethyl-1-(3-methylphenyl)-1H-pyrrol-3-yl]ethan-1-one] | 0.013% |
| CC(=O)NCCc1ccc(C(=O)C(C)Cl)cc1 (stereo not shown) [10-B03, N-{2-[4-(2-chloropropanoyl)phenyl]ethyl}acetamide] | 85.1% |
| Cn1cccc1C(=O)CCl [10-B04, 2-chloro-1-(1-methyl-1H-pyrrol-2-yl)ethan-1-one] | 64.6% |
| O=C(CCl)c1c[nH]c2ccccc12 [10-B05, 2-chloro-1-(1H-indol-3-yl)ethan-1-one] | 111% |
| O=C(CCl)c1ccc(NC(=O)c2ccccc2)cc1 [10-B06, N-[4-(2-chloroacetyl)phenyl]benzamide] | 1.37% |
| O=C(O)c1coc(C(=O)CCl)c1 [10-B07, 5-(2-chloroacetyl)furan-3-carboxylic acid] | 107% |
| Cc1cc(C(=O)CCl)c(C)n1CC1CCCO1 (stereo not shown) [10-B08, 2-chloro-1-{2,5-dimethyl-1-[(oxolan-2-yl)methyl]-1H-pyrrol-3-yl}ethan-1-one] | 54.2% |
| N#Cc1ccc(N2C(=O)C=CC2=O)cc1 [10-B09, 4-(2,5-dioxo-2,5-dihydro-1H-pyrrol-1-yl)benzonitrile] | 82.1% |
| O=C(CCl)c1ccc(C(F)(F)F)cc1 [10-B10, 2-chloro-1-[4-(trifluoromethyl)phenyl]ethan-1-one] | 13.9% |
